Three molecules from US11708423B2, “Chimeric engulfment receptor molecules and methods of use” (CERO THERAPEUTICS, INC., priority 2017, dated 2023) can be followed below.

Assay [1] has as its system HCC159 lung adenocarcinoma cells. Nature of the assay: Tim4-IgG1 Fc staining for phosphatidylserine exposure after EGFR inhibitor treatment. The conditions noted are these: 12 hours, increasing concentrations 50 nM and higher. Format: cell-based. The source says: HCC159 lung adenocarcinoma cells harbor an EGFR mutation and are sensitive to EGFR inhibition.
Assay [2] deals with dexamethasone pre-treated thymocytes. Briefly: Phagocytosis of thymocytes by CER Ba/F3 cells in presence or absence of Racl inhibitor. Format: cell-based.

The structures appear in SMILES notation.

Regarding `C#Cc1cccc(Nc2ncnc3cc(OCCOC)c(OCCOC)cc23)c1` [Erlotinib], the “surface staining with Tim4-IgG1 Fc fusion protein (phosphatidylserine exposure)” value in assay [1] is “enhanced surface staining with Tim4-IgG1 Fc fusion protein”.

Consider `C=CC(=O)Nc1cc(Nc2nccc(-c3cn(C)c4ccccc34)n2)c(OC)cc1N(C)CCN(C)C` [Osimeritinib], for which the “surface staining with Tim4-IgG1 Fc fusion protein (phosphatidylserine exposure)” value in assay [1] is given as “enhanced surface staining with Tim4-IgG1 Fc fusion protein”.

With `CCN(CC)CCCC(C)Nc1nc(C)cc(Nc2ccc3nc(C)cc(N)c3c2)n1` (stereo not shown) [NSC23766], the “effect of Racl inhibitor on phagocytosis by CER21-transduced Ba/F3 cells” value in assay [2] (6 hour co-culture, FACS) is reported as “abolishes phagocytosis”. The “effect of Racl inhibition on CER116 mediated phagocytosis” value in assay [2] (Ba/F3 cells, fluorescent micrographs) is on record as “abolishes CER116 mediated phagocytosis of thymocytes”.
